Laboratory results: patent US4568689A, “Pharmaceutical preparation for the treatment of hypertensive disease and myocardial infarction” (priority 1983, dated 1986)
“Also recorded” adds a separate entry of the source.

Tests used:
[1] = tested on: experimental necrosis of myocardium caused by introduction of adrenaline; assay: histological analysis of experimental necrosis of myocardium caused by adrenaline; assay type: in vivo, rats of the Wistar line
Experimental: A comparative study of the effects produced by the preparation according to the present invention and finoptin on an experimental necrosis of myocardium caused by introduction of adrenaline.
The experiments were carried out on rats of the Wistar line of gregarious keeping, both sexes, with a mass of 170 to 225 g. Each preparation was studied on a separate group of animals: (group of adrenaline-control, group of finoptin, group of the preparation according to the present invention). 72 rats were used in the experiments altogether. Injuries of myocardium were caused by way of a single-time subcutaneous administration of a 0.1% solution of adrenaline hydrochloride in the dose of 3 mg per kg of the rat's bodyweight. […] The preparation of this invention was administered subcutaneously, finoptin-per os. On the first day of the experiment the preparations were administered 30 minutes after injection of adrenaline hydrochloride. The experiment lasted for 19 days. Slaughters were effected on the 4th, 8th, 12th and 19th day of the experiment. The animals were decapitated. The heart was fixed in a 10% solution of neutral formalin and sealed in paraffin. Serial sections with the thickness of 5-6μ were coloured by Ehrlich hematoxylin-eosin. The state of vessels of myocardium, cardiomyocytes and interstitial tissue were evaluated by histological analysis.

[2] = tested on: arterial pressure of spontaneously hypertensive rats; assay: effect of the oral form on arterial pressure, spontaneously hypertensive rats; assay type: in vivo
Experimental: Also studied was the efficiency of the oral form of the preparation according to the present invention. […] The efficiency was studied within the range of doses from 50 to 100 mg/kg.

[3] = tested on: arterial pressure of spontaneously hypertensive rats; assay: as above; assay type: in vivo; remark: listed apart in the source
[4] = tested on: neoepinephrine model of infarction (focal necrosis) of myocardium in rats; assay: survival of rats with the neoepinephrine model of infarction; assay type: in vivo, rats of the Wistar line; conditions: 25 mg/kg subcutaneously, 7 days
Experimental: The study of the effect produced by the preparation according to the present invention on survival of animals with a neoepinephrine model of infarction was effected in comparison with the prior art preparations--obzidan and finoptin.
The formation of a neoepinephrine model of infarction (focal necrosis) of myocardium in rats was effected by way of an every-day subcutaneous administration of a 0.1% solution of neoepinephrine in the dose of 3 mg/kg for 7 days to rats of the Wistar line with a mass of 160-200 g. The test preparations were subcutaneously administered to the rats in the form of a 1.25% aqueous solution in the dose of 25 mg/kg 0.5 hour after injection of neoepinephrine also for 7 days.

in vivo = conditions: mouse, ip
Experimental: (§1) Acute toxicity measurements were carried out in experiments on white mongrel mice upon intraperitoneal administration.

white mongrel mice = assay: in vivo; conditions: mouse, ip
Experimental: as §1

[5] = tested on: arterial pressure and vegetative responses in narcotized animals; assay: arterial pressure, breathing and electrocardiogram in narcotized cats, intravenous; assay type: in vivo
Experimental: (§2) The effect of the pharmaceutical preparation according to the present invention on the arterial pressure and vegetative responses was studied in acute experiments on cats with a mass of 2.8-4.0 kg narcotized with α-glucochloralose (90 mg/kg) and urethane (100 mg/kg, intraperitoneally). The breathing, arterial pressure in the common carotid artery and electrocardiogram of the second standard lead were recorded.
(§3) The influence of the preparation according to the present invention on hemodynamic effects of acetylcholine (0.1 μg/kg) neoepinephrine (0.2 μg/kg), noradrenaline (1 μg/kg), histamine (1.5 μg/kg) and angiotensin (0.1 μg/kg) was also studied. The preparation of this invention was intravenously administered in the form of a 2.5% solution in doses of 0.5 to 10 mg/kg. The peripheral part of the vagus nerve was irritated by supromaximum pulses with the frequency of 30 Hz and duration of 0.1 ms.

[6] = tested on: hemodynamic effects of acetylcholine, neoepinephrine, noradrenaline, histamine and angiotensin; assay: influence on hemodynamic effects of acetylcholine, noradrenaline, neoepinephrine, angiotensin and histamine in narcotized cats; assay type: in vivo
Experimental: as §2, §3

[7] = 4th day, grade/number of animals (6)
[8] = 8th day, grade/number of animals (6)
[9] = 12th day, grade/number of animals (6)
[10] = 19th day, grade/number of animals (5)

Compound: C[N+]1(C)CC(CC(=O)[O-])C(=O)N1 (centres unmarked) [Preparation of this invention, (1,1-dimethyl-3-oxopyrazolin-1-io-4-yl)acetate]
- changes in cardiomyocytes ([1]; 4th day, 25 mg/kg): The granular-lumpy decomposition, necrosis of 3-5 cells is observed in a half of the investigated animals
- changes in interstitial tissue ([1]; 4th day, 25 mg/kg): The formation of granulomae on the side of the interstitial tissue is observed in all of the animals
- changes in vessels ([1]; 4th day, 25 mg/kg): the left ventricle capillaries are plethoric. In two cases insignificant infiltrations of the adventitia with lymphoid cells are observed
- edema (interstitial tissue) [1, 7]: 0/6
- necrobiotic regions in the wall [1, 7]: 0/6
- necrosis of more than 5 cells [1, 7]: 0/6
- wall necrosis (vessels) [1, 7]: 0/6
- overall therapeutic effect on the myocardium ([1]; 4th, 8th, 12th and 19th day): possesses a clearly manifested therapeutic effect allowing no significant changes in the myocardium, prevents the growth of the scarring tissue, contributes to the restoration of morphological structures of the myocardium
- changes in interstitial tissue ([1]; 8th day, 25 mg/kg): the formation of the scarring tissue is to a lesser extent than in the control group
- changes in vessels ([1]; 8th day, 25 mg/kg): the coronary vessels are without changes; in some cases insignificantly plethoric vessels and changes in cells in the form of swelling are observed
- diffusive round-cell infiltration [1, 8]: 0/6
- edema (interstitial tissue) [1, 8]: 0/6
- infiltration of the adventitia with lymphoid cells [1, 8]: 0/6
- necrobiotic regions in the wall [1, 8]: 0/6
- necrosis of more than 5 cells [1, 8]: 0/6
- nuclei (pyknosis) [1, 8]: 0/6
- wall necrosis (vessels) [1, 8]: 0/6
- changes in cardiomyocytes ([1]; 12th day, 25 mg/kg): In comparison with the 8th day of the experiment eosinophilia and contructure type changes are decreased
- changes in interstitial tissue ([1]; 12th day, 25 mg/kg): the scarring tissue formation is more distinctly pronounced. These changes are substantially less revealed than the changes in the control group (adrenaline)
- changes in vessels ([1]; 12th day, 25 mg/kg): an insignificant plethora of the vessels is observed on the 12th day of the experiment
- Nuclei (pykhnosis) [1, 9]: 0/6
- diffusive round-cell infiltration [1, 9]: 0/6
- edema (interstitial tissue) [1, 9]: 0/6
- infiltration of the adventitia with lymphoid cells [1, 9]: 0/5
- necrobiotic regions with changes in the vessel wall [1, 9]: 0/6
- necrosis of more than 5 cells [1, 9]: 0/6
- wall necrosis (vessels) [1, 9]: 0/6
- changes in cardiomyocytes ([1]; 19th day, 25 mg/kg): In half of the animals the granular-lumpy decomposition is less pronounced. Necrosis of individual cells and eosinophilia, as well as contructure type changes are also observed
- changes in connective tissue ([1]; 19th day, 25 mg/kg): a less pronounced formation of the scarring tissue is to be noted as compared to the control group
- changes in vessels ([1]; 19th day, 25 mg/kg): By the 19th day this phenomena becomes more clearly pronounced; also recorded: no changes were noticed on the part of the coronary vessels. The plethora of capillaries in the left ventricle wall is noticed
- changes in the endothelium [1, 10]: 0/5
- infiltration of the adventitia with lymphoid cells [1, 10]: 0/5
- necrobiotic regions with changes in the vessel wall [1, 10]: 0/5
- necrosis of more than 5 cells [1, 10]: 0/5
- nuclei (pyknosis) [1, 10]: 0/5
- Variation of arterial pressure, systolic ([2]; 50 mg/kg per os, 4 hours): -3 % of the initial
- Variation of arterial pressure, diastolic ([2]; 75 mg/kg per os, 1 hour): -17 % of the initial
- Variation of arterial pressure, systolic ([2]; 75 mg/kg per os, 1 hour): -10 % of the initial
- Variation of arterial pressure, diastolic ([2]; 75 mg/kg per os, 2 hours): -18 % of the initial
- superiority in duration of action over nifedipine ([2]; 75 mg/kg per os, vs nifedipine): at least 3 times
- Variation of arterial pressure, diastolic ([2]; 100 mg/kg per os, 1 hour): -8 % of the initial
- Variation of arterial pressure, systolic ([2]; 100 mg/kg per os, 1 hour): -7 % of the initial
- Variation of arterial pressure, diastolic ([2]; 100 mg/kg per os, 24 hours): -3 % of the initial
- Variation of arterial pressure, diastolic ([3]; 50 mg/kg per os, 30 minutes): -10 % of the initial
- Variation of arterial pressure, systolic ([3]; 50 mg/kg per os, 30 minutes): -3 % of the initial
- Variation of arterial pressure, diastolic ([3]; 50 mg/kg per os, 1 hour): +2 % of the initial
- Variation of arterial pressure, diastolic ([3]; 50 mg/kg per os, 2 hours): -8 % of the initial
- Variation of arterial pressure, systolic ([3]; 50 mg/kg per os, 2 hours): -5 % of the initial
- Variation of arterial pressure, diastolic ([3]; 50 mg/kg per os, 4 hours): -3 % of the initial
- Variation of arterial pressure, diastolic ([3]; 50 mg/kg per os, 24 hours): -2 % of the initial
- Variation of arterial pressure, systolic ([3]; 50 mg/kg per os, 24 hours): -7 % of the initial
- Variation of arterial pressure, diastolic ([3]; 75 mg/kg per os, 30 minutes): -12 % of the initial
- Variation of arterial pressure, systolic ([3]; 75 mg/kg per os, 30 minutes): -16 % of the initial
- Variation of arterial pressure, systolic ([3]; 75 mg/kg per os, 2 hours): -18 % of the initial
- Variation of arterial pressure, diastolic ([3]; 75 mg/kg per os, 4 hours): -11 % of the initial
- Variation of arterial pressure, systolic ([3]; 75 mg/kg per os, 4 hours): -8 % of the initial
- Variation of arterial pressure, diastolic ([3]; 75 mg/kg per os, 24 hours): -22 % of the initial
- Variation of arterial pressure, systolic ([3]; 75 mg/kg per os, 24 hours): -20 % of the initial
- stable reduction of the arterial pressure ([3]; 75 mg/kg per os, 24 hours after administration): about 20%
- Variation of arterial pressure, diastolic ([3]; 100 mg/kg per os, 30 minutes): -11 % of the initial
- Variation of arterial pressure, systolic ([3]; 100 mg/kg per os, 30 minutes): -13 % of the initial
- Variation of arterial pressure, diastolic ([3]; 100 mg/kg per os, 2 hours): -7 % of the initial
- Variation of arterial pressure, systolic ([3]; 100 mg/kg per os, 2 hours): -8 % of the initial
- Variation of arterial pressure, diastolic ([3]; 100 mg/kg per os, 4 hours): -13 % of the initial
- Variation of arterial pressure, systolic ([3]; 100 mg/kg per os, 4 hours): -13 % of the initial
- Variation of arterial pressure, systolic ([3]; 100 mg/kg per os, 24 hours): -12 % of the initial
- Percentage of survival ([4]; after 19 days): 92%
- Number of survived animals after 19 days ([4]; groups initially 12 animals): 11
- LD50 (in vivo): 2240 mg/kg
- LD50 (white mongrel mice): 2,239 (1,279-3,917) mg/kg
- Variation of arterial pressure ([5]; 5 mg/kg intravenously): -16%
- peripheral resistance ([5]; in vivo): reduction of peripheral resistance
- effect on breathing and electrocardiogram ([5]; intravenously, 0.5 to 10 mg/kg): does not substantially affect the breathing and electrocardiogram of the animals
- Hemodynamic effect, Neoepinephrine ([6]; 10 mg/kg intravenously, neoepinephrine 0.2 μg/kg): -35%
- Hemodynamic effect, Noradrenaline ([6]; 0.5-3.0 mg/kg intravenously, noradrenaline 1 μg/kg): -10%
- blocking of α- and β-receptors and the cholinergic system ([6]; higher doses (10 mg/kg)): substantially blocks both α- and β-receptors, as well as the cholinergic system
- direct influence on effects of angiotensin and histamine ([6]; higher doses (10 mg/kg)): does not provide any direct influence on effects of angiotensin and histamine
